Where a name gives a salt, the structure may show the parent alone.
Tests used:
[1] = test system: bronchial secretion in guinea pigs; assay: expectorant (bronchosecretolytic) activity, increase in bronchial secretion in anesthetized guinea pigs, peroral administration (Perry & Boyd, modified by Engelhorn & Puschmann); type: in vivo; details: two-hour period, vs untreated controls, male guinea pigs
Method: (§1) The bronchosecretolytic activity and the intravenous acute toxicity of the compounds of this invention and of certain related 2-unsubstituted analogs disclosed in German Offenlegungsschrift No. 2,424,811 were ascertained by the standard test methods described below.
The tests for expectorant activity were carried out according to the method of PERRY, W. and BOYD, E.M.; J. Pharmacol. exp. Therap. 73, 65 (1941), as modified by ENGELHORN, R. and PUSCHMANN, S.; Arzneimittel Forsch. 21, 1045 (1971), on male guinea pigs with a body weight of 450 to 550 gm, which were anesthetized by i.p.-administration of a * 25% urethane solution (1,0 g/kg). The substances were administered perorally at the indicated dosages levels, each in 2 ml of distilled water, by means of an esophageal tube. 5 tests were carried out per dosage. The increase in bronchial secretion was calculated from the amount secreted within a two-hour period after administration of the test compound in comparison with the values obtained from untreated control animals, also within a two-hour period.

[2] = acute toxicity, LD50 in the mouse after intravenous administration; details: in vivo, i.v., NMRI-mice both sexes, deaths within 14 days, Litchfield and Wilcoxon
Method: as §1
The acute toxicity was tested in NMRI-mice of both sexes having a body weight of 20 gm after intravenous administration. 0.1 ml of an aqueous 0.9% sodium chloride solution/10 gm of animal was used as a vehicle. The LD50 was calculated according to LITCHFIELD and WILCOXON from the percentage of the animals which died within 14 days after administration of various dosages.

SMILES	Average percentage change in amount of bronchial secretion in guinea pigs ([1]; 0.005 μg/kg per os)	Average percentage change in amount of bronchial secretion in guinea pigs ([1]; 0.05 μg/kg per os)	LD50 at 336 h [2] [mg/kg]	Average percentage change in amount of bronchial secretion in guinea pigs ([1]; 0.5 μg/kg per os)
CCN(CC)CCCN1c2ccccc2N(C)C(=O)c2ccc(C)nc21.Cl [A, 11-(3-Diethylamino-propyl)-6,11-dihydro-2,6-dimethyl-5H-pyrido[2,3-b][1,5]benzodiazepin-5-one hydrochloride]	+44%	+100%	15.4	
CCN(CC)CCCN1c2cc(C)c(C)cc2N(C)C(=O)c2ccc(C)nc21.O=C(O)/C=C/C(=O)O [B, 11-(3-Diethylamino-propyl)-6,11-dihydro-2,6,8,9-tetramethyl-5H-pyrido[2,3-b][1,5]benzodiazepin-5-one hydrogen fumarate]	+44%	+83%	9.9	
CCN(CC)CCCN1c2ccccc2N(C)C(=O)c2cccnc21.Cl [X, 11-(3-Diethylamino-propyl)-6,11-dihydro-6-methyl-5H-pyrido[2,3-b][1,5]benzodiazepin-5-one hydrochloride]	+0%	+13%		+80%
CCN(CCCN1c2ccccc2N(C)C(=O)c2cccnc21)C(C)C [Y, 11-[3-N-ethyl-N-isopropyl-amino)-propyl]-6,11-dihydro-6-methyl-5H-pyrido[2,3-b][1,5]benzodiazepin-5-one hydrochloride]		+10%	30	
CC(C)N(CCCN1c2ccccc2N(C)C(=O)c2cccnc21)C(C)C.Cl [Z, 6,11-Dihydro-11-(3-diisopropylamino-propyl)-6-methyl-5H-pyrido[2,3-b][1,5]benzodiazepin-5-one hydrochloride]		+27%		

— patent US4167570A, “2-Methyl-6-alkyl-11-aminoalkyl-6,11-dihydro-5H-pyrido(2,3-B)(1,5)benzodia zepin-5-ones and salts thereof” (Boehringer Ingelheim GmbH, priority 1976, dated 1979)
